Data set [1] in a line: Retardation factor of the compound using CHCl3-EtOAc-HOAc at ratio of 50:50:1 as solvent system by thin layer chromatography. It counts as physicochemical.
Data set [2] concerns Platelet. Nature of the data set: Induction of platelet aggregation in human citrated platelet-rich plasma assessed as internal contractile response with granules being squeezed into cell centre surrounded closely by microtubules and contractile microfilaments by transmission electron microscopy. The format is functional.
The test system of data set [3] is Platelet. Nature of the data set: Induction of platelet aggregation in human citrated platelet-rich plasma in presence of 10 ug/ml PG synthase inhibitor indomethacin. The format is functional.
Data set [4] in a line: Vasocontractile activity in dog lateral saphenous vein assessed as smooth muscle contractile response in presence of PG synthase inhibitor indomethacin. The note with it: Canis lupus familiaris. The format is functional, tissue-based.
Data set [5] relates to Gerbillinae. Nature of the data set: Vasocontractile activity in gerbil colon assessed as smooth muscle contractile response. It counts as functional, tissue-based. As to conditions: Muscle tissue.
The species entered for data set [6] is Oryctolagus cuniculus. As to the kind of experiment: Vasocontractile activity in rabbit aorta assessed as smooth muscle contractile response. It counts as functional, tissue-based. As to conditions: Muscle tissue.
The test system of data set [7] is Platelet. Nature of the data set: Induction of reversible platelet aggregation in human citrated platelet-rich plasma at 0.7 to 4 ug/ml. The format is functional.
Data set [8] deals with Platelet. As to the kind of experiment: Induction of irreversible platelet aggregation in human citrated platelet-rich plasma at 5 to 10 ug/ml. It counts as functional.
The species entered for data set [9] is Canis lupus familiaris. As to the kind of experiment: (§1) Vasocontractile activity in dog lateral saphenous vein assessed as smooth muscle contractile response. The format is functional.
A short description of data set [10]: Vasocontractile activity in rabbit aorta assessed as smooth muscle contractile response relative to PGE2. It counts as functional, Oryctolagus cuniculus, Muscle tissue.
The test system of data set [11] is Platelet. As to the kind of experiment: Induction of irreversible platelet aggregation in human citrated platelet-rich plasma at 100 to 250 ng/ml. The format is functional.
A short description of data set [12]: Vasocontractile activity in gerbil colon assessed as smooth muscle contractile response relative to PGF2alpha. It counts as functional, Gerbillinae, Muscle tissue.
The nature of data set [13]: Stability of the compound in Krebs solution at pH 8.2 at 4 degC after 1 week. The format is physicochemical. As to conditions: buffer, pH 8.2, 168 h.
Data set [14] in a line: Vasocontractile activity in dog lateral saphenous vein assessed as smooth muscle contractile response relative to PGF2alpha. It counts as functional, Canis lupus familiaris.
A short description of data set [15]: as §1. The format is functional. The note with it: Canis lupus familiaris, read-out: ED50 (the source's name).

Structures are written as SMILES. Values after ≈ are worked out from the molar mass of the structure shown. Active and inactive are the calls of the source. No cut-off for these calls is given here.

For `CCCCC[C@H](O)/C=C/[C@@H]1[C@@H](C/C=C\CCCC(=O)O)[C@@H]2C[C@H]1OC(C)O2` (mixture of isomers), in [1], the Rf was 0.49.
For `CCCCC[C@H](O)/C=C/[C@@H]1[C@@H](C/C=C\CCCC(=O)O)[C@@H]2C[C@H]1OC(C)O2` (stereo in doubt; 1a) [listing 1 of 2 here], the result in data set [2], in data set [3], in data set [4], in data set [7] and in data set [8] was Active. In addition, the Activity result in data set [5], in [6] and in data set [9] was “Dose-dependent effect” throughout.
For the compound `CCCCC[C@@H](/C=C/[C@@H]1[C@@H](C/C=C\CCCC(=O)O)[C@H]2C[C@H]1OO2)OO`, the Activity was 80% in data set [10] and 1.5% in data set [12]. In data set [11], the outcome was Active.
Consider `CCCCC[C@H](O)/C=C/[C@@H]1[C@@H](C/C=C\CCCC(=O)O)[C@@H]2C[C@H]1OC(C)O2` (stereo in doubt; 1a) [listing 2 of 2 here], for which the Activity in [10] worked out at 19%; in [12] it was 0.12%; in data set [14], 32%. In addition, the Stability result in data set [13] was “Stable”. Also, in data set [1], the Rf is on record as 0.53. The EC50 in [15] stood at 5.8 ng/mL (≈ 0.0152 µM).

The values above are taken from ChEMBL document CHEMBL3272252, “A novel prostaglandin endoperoxide mimic, prostaglandin F2alpha acetal” (J Med Chem, 1977).
